The nature of this data set: Pharmacokinetics of Free Base Forms I and II in male Beagle dogs after a single oral dose; Compound 1 plasma concentrations by LC-MS/MS. It counts as in vivo. Here is the method:
In this study, male Beagle dogs were administered Free Base Form I and Free Base Form II at 25 mg/kg and 100 mg/kg (0.5% carboxymethylcellulose (CMC) and 0.1% Tween in water at pH 7). The dogs were fasted overnight and then offered food one hour prior to oral administration of the form. Blood samples were collected at predetermined timepoints up to 48 hours. Compound 1 plasma concentrations were determined by liquid chromatography with tandem mass spectrometry (LC-MS/MS) methods.

Where [1] appears, read: 25 mg/kg dose, versus Free Base Form I.
The mark [2] stands for this setting: 100 mg/kg dose, versus Free Base Form I.

As to `CC(=O)N1CCN([C@H]2CCC[C@@H](NC(=O)c3cc4c(F)ccc(C)c4[nH]3)C2)CC1` [Free Base Form II, N-((1R,3S)-3-(4-acetylpiperazin-1-yl)cyclohexyl)-4-fluoro-7-methyl-1H-indole-2-carboxamide], under setting [1], the “Compound 1 AUC0-inf greater than that of Free Base Form I” value is recorded as approximately 20% and the “Compound 1 Cmax greater than that of Free Base Form I” value is approximately 40%. Moreover, under setting [2], the “AUC0-inf greater than that of Free Base Form I” value came to 3.1 fold and the “Cmax greater than that of Free Base Form I” value stood at 1.8 fold. Besides, the “exposure in dogs compared with Free Base Form I” value (oral 25 and 100 mg/kg, difference dose-dependent) is listed as “unexpectedly greater exposure”.
